Assay results published in paper PMC8301768, “Cloning and Characterization of Aedes aegypti Trypsin Modulating Oostatic Factor (TMOF) Gut Receptor” (Biomolecules, 2021).

How the values were obtained:
[1] = test system: AeaABC-TMOF receptor; assay: Transport of AeaTMOF-FITC into E. coli cells expressing AeaABC-TMOF receptor in the presence of inhibitors; assay type: cell-based, Aedes aegypti; conditions: NaAzide 100 μM, NaArsenate 20 mM, AeaTMOF-FITC 0.4 μM, 2 h, 37 °C; for effect on transport of AeaTMOF-FITC into E. coli cells (in words): Valinomycin 7 μM, DNP 27 μM; for inhibition of transport of AeaTMOF-FITC into E. coli cells: 5 × 10^5 cells, M9 medium, versus control cells, mean of 3
Description: To find out whether the transport into E. coli cells expressing the TMOF receptor is proton driven or depends on ATP hydrolysis, E. coli cells (5 × 10^5 cell) expressing the TMOF receptor were incubated in M9 medium (100 μL) with valinomysin (7 μM), DNP (27 μM), NaAzide (100 μM) and NaArsenate (20 mM) in the presence of AeaTMOF-FITC (0.4 μM) for 2 h at 37 °C. Control was run without the inhibitors. After incubation, the cells were washed 3× by centrifugation and the fluorescence was read after subtraction the initial background fluorescence of the medium and inhibitors without the AeaTMOF-FITC. The incubations were repeated 3 independent times and the results are expressed as means of 3 determinations ±SEM.

[2] = test system: AeaABC-TMOF receptor; assay: Binding of TMOF-FITC to AeaABC-TMOF receptor expressed in E. coli SbmA− cells; set-up: species or system Aedes aegypti; conditions: for Kd: TMOF-FITC 0–0.4 μM, 8 × 10^8 E. coli SbmA− cells expressing receptor, M9 medium pH 7.2, 37 °C, fluorescence, corrected for nonspecific binding (13%), nonlinear regression, n = 5, ± SEM; for Bmax: as for KD, ± SEM; for affinity constant Kassoc: calculated from the binding kinetics
Description: Mid-log phase bacteria harboring TMOF-receptor were harvested, diluted and 0.5 μL (8 × 10^8 cells) were incubated in M9 medium (100 μL) pH 7.2 at 37 °C for 2 h in a shaker incubator in Eppendorf tubes with different concentrations of TMOF-FITC (0–0.4 μM) (specific activity = 25,396 fluorescence units/pmol) in the presence of TMOF (1 μmol) to reduce nonspecific binding of TMOF-FITC to the bacterial surface. After incubation, the cells were centrifuged at 14,000 rpm for 5 min at 4 °C, resuspended in PBS pH 7.2 (100 μL), vortexed, centrifuged, and the washing was repeated three times. After the last wash, the cells OD600nm and fluorescence were read in GloMax multidetector system using a blue filter (excitation at 490 nm and emission at 510–570 nm). The amount of TMOF-FITC that bound the TMOF-receptor was determined from a linear calibration curve after plotting different concentrations of TMOF-FITC against fluorescence units. […] After HPLC purification, the TFA ions were exchanged with phosphate ions. […] The results are expressed as pmol/OD600 so the binding to the receptor is per equal number of E. coli cells. The kinetics of TMOF-FITC binding to its receptor was followed at different concentrations of TMOF-FITC using 5 repetitions per concentration, the data was then fitted by nonlinear regression using GraphPad Prism and the KD, Bmax and the affinity constant Kassoc determined. The binding experiments were repeated 3 independent times.
Statistical analyses were determined using GraphPad Prism using two tailed Student’s t test and nonlinear regression. Results were considered significant when p < 0.05. […] Each experimental point is a mean of 3–5 determinations ± SEM.

[3] = test system: E. coli SbmA+ cells; assay: Binding of TMOF-FITC to E. coli SbmA+ cells with empty pTAC-MAT2 plasmid; conditions: 8 × 10^8 cells, 2 h, 37 °C, M9 medium, mean of three
Description: (§1) Mid-log phase bacteria harboring TMOF-receptor were harvested, diluted and 0.5 μL (8 × 10^8 cells) were incubated in M9 medium (100 μL) pH 7.2 at 37 °C for 2 h in a shaker incubator in Eppendorf tubes with different concentrations of TMOF-FITC (0–0.4 μM) (specific activity = 25,396 fluorescence units/pmol) in the presence of TMOF (1 μmol) to reduce nonspecific binding of TMOF-FITC to the bacterial surface. After incubation, the cells were centrifuged at 14,000 rpm for 5 min at 4 °C, resuspended in PBS pH 7.2 (100 μL), vortexed, centrifuged, and the washing was repeated three times. After the last wash, the cells OD600nm and fluorescence were read in GloMax multidetector system using a blue filter (excitation at 490 nm and emission at 510–570 nm). The amount of TMOF-FITC that bound the TMOF-receptor was determined from a linear calibration curve after plotting different concentrations of TMOF-FITC against fluorescence units. […] The results are expressed as pmol/OD600 so the binding to the receptor is per equal number of E. coli cells. The kinetics of TMOF-FITC binding to its receptor was followed at different concentrations of TMOF-FITC using 5 repetitions per concentration, the data was then fitted by nonlinear regression using GraphPad Prism and the KD, Bmax and the affinity constant Kassoc determined. […]

[4] = test system: E. coli SbmA− cells; assay: Fluorescence microscopy of E. coli cells with empty pTAC-MAT-2 plasmid incubated with TMOF-FITC; assay type: cell-based; conditions: overnight incubation, 10^8 cells with empty plasmid, 37 °C, washed 3×
Description: (§2) Binding of TMOF-FITC to the AeaABC-TMOF receptor and its transport into the recombinant E. coli cells were observed using Leica DM6B microscope with Leica DFC 7000 T camera and 63× magnification using oil immersion lens. Mid-log E. coli cells (10^8 cells) expressing AeaABC-TMOF-receptor were incubated with TMOF-FITC (see Section 2.6) in M9 medium (100 μL) overnight at 37 °C. After incubation, the cells were washed 3× in PBS pH 7.2 (as in Section 2.6) and aliquots (10 μL) were spread on a glass slide then covered with a cover slip and a drop of oil was applied to the top of the cover slip, and the cells observed by fluorescence microscopy. Cells without a TMOF-receptor containing an empty plasmid were used as control.

[5] = test system: AeaABC-TMOF receptor; assay: Fluorescence microscopy of TMOF-FITC import into E. coli cells expressing AeaABC-TMOF receptor; assay type: cell-based, Aedes aegypti; conditions: for fluorescence of cells / import (in words): overnight incubation, 10^8 cells expressing receptor, 37 °C, washed 3×
Description: as §2, with “Mid-log E. coli cells (10^8 cells) expressing AeaABC-TMOF-receptor were incubated with TMOF-FITC (see Section 2.6) in M9 medium (100 μL) overnight at 37 °C.” left out

[6] = test system: E. coli SbmA− cells; assay: Nonspecific binding of TMOF-FITC to E. coli SbmA− cells with empty pTAC-MAT-2 plasmid
Description: as §1

[7] = test system: TMOF gut receptor; conditions: cited from earlier work
Source text: To characterize the TMOF gut receptor, complementary decapeptides were used on Ae. aegypti gut membranes showing that the binding to the gut membrane is pH and temperature dependent. […] The specific TMOF receptor binding sites on female mosquito gut increased after the blood meal and they were visualized by immunochemistry staining. […] Our earlier studies also characterized a low affinity receptor [25] whereas in this study the affinity chromatography and SDS PAGE procedure that we used aimed to purify a high affinity TMOF receptor. It is possible that a second low affi ...

## O=[N+]([O-])c1ccc(O)c([N+](=O)[O-])c1 [DNP, 2,4-dinirophenol]
[1]
  effect on transport of AeaTMOF-FITC into E. coli cells (in words): did not stop the transport

## O=[As]([O-])([O-])O.[Na+].[Na+] [NaArsenate, sodium arsenate]
[1]
  inhibition of transport of AeaTMOF-FITC into E. coli cells: 58%
  effect on transport of AeaTMOF-FITC into E. coli cells (in words): inhibited

## [N-]=[N+]=[N-].[Na+] [NaAzide, sodium azide]
[1]
  inhibition of transport of AeaTMOF-FITC into E. coli cells: 43%
  effect on transport of AeaTMOF-FITC into E. coli cells (in words): inhibited

## CC(C)[C@@H]1NC(=O)[C@H](C)OC(=O)[C@@H](C(C)C)NC(=O)[C@@H](C(C)C)OC(=O)[C@H](C(C)C)NC(=O)[C@H](C)OC(=O)[C@@H](C(C)C)NC(=O)[C@@H](C(C)C)OC(=O)[C@H](C(C)C)NC(=O)[C@H](C)OC(=O)[C@@H](C(C)C)NC(=O)[C@@H](C(C)C)OC1=O [Valinomycin]
[1]
  effect on transport of AeaTMOF-FITC into E. coli cells (in words): did not stop the transport

## H-YDPAPPPPPPK(FITC)K-OH [TMOF-FITC]
[2]; 2 h, 37 °C, M9 medium, versus E. coli SbmA+ with empty plasmid, p = 0.0034
  fold more TMOF-FITC bound by receptor-expressing cells than by E. coli SbmA+: 3.7 fold
[2]; 2 h, 37 °C, M9 medium, versus E. coli SbmA− with empty plasmid, p = 0.0018
  fold more TMOF-FITC bound by receptor-expressing cells than by E. coli SbmA−: 7.8 fold
[2]; 2 h
  Kd: 114 ± 18 nM
[2]; per equal number of E. coli cells, n = 5
  Bmax: 28.7 ± 1.8 pmol/OD600
[2]
  affinity constant Kassoc: 8.8e+06 M⁻¹
[3]
  AeaTMOF-FITC bound: 8.4 pmol
[4]
  fluorescence of cells (in words): did not fluoresce
[4]; listed as AeaTMOF-FITC
  fluorescence of cells (in words): barely fluoresce
[5]
  fluorescence of cells / import (in words): imports it into the bacterial cells
[5]; listed as AeaTMOF-FITC
  fluorescence of cells / import (in words): highly fluoresce
[5]; short time incubation (2 h), cells expressing receptor
  fluorescence of cells (in words): did not fluoresce
[6]; E. coli SbmA− cells with empty pTAC-MAT-2 plasmid, not expressing the receptor (bacterial cell wall)
  nonspecific binding: 13%
[6]; E. coli SbmA− cells, 8 × 10^8 cells, 2 h, 37 °C, M9 medium, mean of three
  AeaTMOF-FITC bound: 4 pmol

## YDPAPPPPPP [TMOF]
[2]; 2 h
  Kd: 114 ± 18 nM
[2]
  Bmax: 28.7 ± 1.8 pmol
  affinity constant Kassoc: 8.8e+06 M⁻¹
[7]; gut membrane preparations
  Bmax: 0.1 pmol/gut
  Kassoc: 2.2e+06 M⁻¹
[7]; low affinity binding site, gut membranes, complementary decapeptides, read-out: Kd2
  Kd: 4430 nM
